Experimental data as given in the NIST ThermoML archive (doi:10.1021/acs.jced.7b00783).
Numbers after ± are expanded uncertainties.

Details: Liquid, Ebulliometric method (Recirculating still)

vapor or sublimation pressure (351.45 K) [kPa]	SMILES	vapor or sublimation pressure (352.72 K) [kPa]
–	CCC(C)=O [butanone]	101.3 ± 0.46
101.3 ± 0.46	CCO [ethanol]	–
